Reference: paper PMC4286194 (Biochemical Journal, 2015)

Experiments:
GCK = molecular target: T1, GCK (Homo sapiens, UniProt Q12851); assay: Kinase profiling; assay type: biochemical
T1 sequence (Q12851 1-820): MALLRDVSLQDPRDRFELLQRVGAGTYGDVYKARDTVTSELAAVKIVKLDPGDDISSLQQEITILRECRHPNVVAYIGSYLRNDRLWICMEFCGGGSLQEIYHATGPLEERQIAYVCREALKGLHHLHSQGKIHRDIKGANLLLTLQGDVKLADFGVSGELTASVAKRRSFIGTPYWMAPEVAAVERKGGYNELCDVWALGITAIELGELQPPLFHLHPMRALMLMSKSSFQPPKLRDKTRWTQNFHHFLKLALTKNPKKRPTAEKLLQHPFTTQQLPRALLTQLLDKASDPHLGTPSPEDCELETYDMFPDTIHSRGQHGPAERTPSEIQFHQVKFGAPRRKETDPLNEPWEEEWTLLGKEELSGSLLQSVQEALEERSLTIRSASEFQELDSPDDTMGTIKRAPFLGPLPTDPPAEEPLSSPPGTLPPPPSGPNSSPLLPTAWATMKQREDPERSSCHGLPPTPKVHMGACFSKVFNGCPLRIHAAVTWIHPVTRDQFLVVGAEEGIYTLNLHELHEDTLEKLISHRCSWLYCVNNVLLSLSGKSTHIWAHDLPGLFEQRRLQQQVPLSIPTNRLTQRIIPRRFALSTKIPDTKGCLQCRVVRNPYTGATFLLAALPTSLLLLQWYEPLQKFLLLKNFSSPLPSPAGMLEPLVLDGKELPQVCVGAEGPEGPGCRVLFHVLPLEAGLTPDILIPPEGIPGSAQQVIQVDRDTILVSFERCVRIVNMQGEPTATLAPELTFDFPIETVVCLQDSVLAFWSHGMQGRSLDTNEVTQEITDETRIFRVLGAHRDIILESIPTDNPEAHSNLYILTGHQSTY

MLK1 = MLK1 (Homo sapiens, UniProt P80192); assay: Kinase profiling; assay type: biochemical
MLK1, sequence (P80192 whole entry): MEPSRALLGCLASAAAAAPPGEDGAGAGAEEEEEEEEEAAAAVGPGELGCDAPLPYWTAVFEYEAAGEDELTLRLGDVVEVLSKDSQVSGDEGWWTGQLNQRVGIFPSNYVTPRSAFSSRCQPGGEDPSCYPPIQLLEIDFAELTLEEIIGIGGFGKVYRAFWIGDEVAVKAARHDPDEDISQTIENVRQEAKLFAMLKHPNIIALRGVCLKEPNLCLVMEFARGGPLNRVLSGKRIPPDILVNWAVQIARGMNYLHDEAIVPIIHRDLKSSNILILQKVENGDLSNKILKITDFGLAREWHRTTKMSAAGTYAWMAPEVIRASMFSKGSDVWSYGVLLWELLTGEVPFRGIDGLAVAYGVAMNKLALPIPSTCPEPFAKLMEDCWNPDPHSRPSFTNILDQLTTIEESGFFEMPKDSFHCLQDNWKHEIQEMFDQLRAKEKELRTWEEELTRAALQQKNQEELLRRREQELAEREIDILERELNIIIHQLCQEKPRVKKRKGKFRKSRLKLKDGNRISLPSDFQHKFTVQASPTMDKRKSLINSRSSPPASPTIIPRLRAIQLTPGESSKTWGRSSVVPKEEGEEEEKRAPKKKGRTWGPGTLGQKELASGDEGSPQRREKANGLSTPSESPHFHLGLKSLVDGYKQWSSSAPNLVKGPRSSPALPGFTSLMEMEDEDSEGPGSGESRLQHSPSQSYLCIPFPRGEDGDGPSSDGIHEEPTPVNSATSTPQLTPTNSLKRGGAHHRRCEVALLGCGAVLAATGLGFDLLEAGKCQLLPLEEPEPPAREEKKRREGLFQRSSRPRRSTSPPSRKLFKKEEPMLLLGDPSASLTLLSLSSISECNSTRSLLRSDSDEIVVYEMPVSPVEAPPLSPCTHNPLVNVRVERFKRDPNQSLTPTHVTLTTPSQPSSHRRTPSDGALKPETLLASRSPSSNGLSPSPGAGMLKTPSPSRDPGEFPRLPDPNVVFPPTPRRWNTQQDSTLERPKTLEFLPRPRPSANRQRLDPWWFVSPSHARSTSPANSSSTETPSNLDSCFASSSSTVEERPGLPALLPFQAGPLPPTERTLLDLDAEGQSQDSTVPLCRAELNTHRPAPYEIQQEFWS

SmMLCK = SmMLCK (Homo sapiens, UniProt Q15746); assay: Kinase profiling; assay type: biochemical
SmMLCK, sequence (Q15746 923-1914): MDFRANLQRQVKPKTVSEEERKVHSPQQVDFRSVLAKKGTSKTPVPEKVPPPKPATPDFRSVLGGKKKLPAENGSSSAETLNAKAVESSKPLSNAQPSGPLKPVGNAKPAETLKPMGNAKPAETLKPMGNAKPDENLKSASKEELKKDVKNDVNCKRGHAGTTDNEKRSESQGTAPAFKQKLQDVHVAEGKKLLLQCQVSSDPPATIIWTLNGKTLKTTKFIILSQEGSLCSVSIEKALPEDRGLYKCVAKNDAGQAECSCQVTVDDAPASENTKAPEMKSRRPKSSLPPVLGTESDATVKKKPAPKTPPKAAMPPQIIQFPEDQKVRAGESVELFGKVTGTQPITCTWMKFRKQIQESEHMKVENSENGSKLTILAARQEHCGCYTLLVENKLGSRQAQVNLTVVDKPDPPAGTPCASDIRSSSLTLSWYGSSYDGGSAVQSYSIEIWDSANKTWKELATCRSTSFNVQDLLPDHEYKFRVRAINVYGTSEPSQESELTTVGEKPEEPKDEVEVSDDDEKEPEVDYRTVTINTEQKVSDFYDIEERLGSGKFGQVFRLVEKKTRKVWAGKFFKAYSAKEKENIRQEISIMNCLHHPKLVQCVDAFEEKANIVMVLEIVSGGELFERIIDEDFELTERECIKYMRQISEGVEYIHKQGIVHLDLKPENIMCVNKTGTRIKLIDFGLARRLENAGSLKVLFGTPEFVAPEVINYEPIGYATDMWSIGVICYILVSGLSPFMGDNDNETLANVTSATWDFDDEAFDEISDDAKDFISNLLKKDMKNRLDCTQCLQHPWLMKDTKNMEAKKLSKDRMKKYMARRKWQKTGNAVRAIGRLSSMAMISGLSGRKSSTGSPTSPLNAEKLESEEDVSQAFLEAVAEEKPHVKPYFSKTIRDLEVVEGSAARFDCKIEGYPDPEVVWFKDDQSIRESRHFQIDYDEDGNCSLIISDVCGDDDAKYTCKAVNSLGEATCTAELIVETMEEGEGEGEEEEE

TAK1 = molecular target: T2, TAK1 (Homo sapiens, UniProt O43318); assay: Kinase profiling; assay type: biochemical
T2 sequence (O43318 1-303 limits assumed): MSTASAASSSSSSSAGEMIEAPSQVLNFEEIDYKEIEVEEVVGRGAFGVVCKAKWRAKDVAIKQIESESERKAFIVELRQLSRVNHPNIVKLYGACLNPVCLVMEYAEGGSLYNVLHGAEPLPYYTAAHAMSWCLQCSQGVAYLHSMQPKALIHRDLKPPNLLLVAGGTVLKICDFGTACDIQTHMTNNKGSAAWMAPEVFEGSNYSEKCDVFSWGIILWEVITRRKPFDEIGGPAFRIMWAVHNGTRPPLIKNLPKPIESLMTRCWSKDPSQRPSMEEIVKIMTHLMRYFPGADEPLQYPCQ

MKK2 = MKK2 (Homo sapiens, UniProt P36507); assay: Kinase profiling; assay type: biochemical
MKK2, sequence (P36507 whole entry): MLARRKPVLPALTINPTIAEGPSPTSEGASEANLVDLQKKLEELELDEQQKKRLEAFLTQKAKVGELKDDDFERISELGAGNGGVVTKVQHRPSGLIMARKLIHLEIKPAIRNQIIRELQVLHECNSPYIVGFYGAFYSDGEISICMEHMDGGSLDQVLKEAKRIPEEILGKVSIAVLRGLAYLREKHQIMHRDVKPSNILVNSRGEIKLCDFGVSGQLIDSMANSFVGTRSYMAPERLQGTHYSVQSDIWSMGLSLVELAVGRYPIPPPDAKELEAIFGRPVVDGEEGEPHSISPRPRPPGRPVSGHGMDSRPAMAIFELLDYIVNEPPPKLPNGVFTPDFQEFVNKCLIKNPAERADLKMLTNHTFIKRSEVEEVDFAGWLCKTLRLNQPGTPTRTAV

PKB beta = PKB beta (Homo sapiens, UniProt P31751); assay: Kinase profiling; assay type: biochemical
PKB beta, sequence (P31751 whole entry): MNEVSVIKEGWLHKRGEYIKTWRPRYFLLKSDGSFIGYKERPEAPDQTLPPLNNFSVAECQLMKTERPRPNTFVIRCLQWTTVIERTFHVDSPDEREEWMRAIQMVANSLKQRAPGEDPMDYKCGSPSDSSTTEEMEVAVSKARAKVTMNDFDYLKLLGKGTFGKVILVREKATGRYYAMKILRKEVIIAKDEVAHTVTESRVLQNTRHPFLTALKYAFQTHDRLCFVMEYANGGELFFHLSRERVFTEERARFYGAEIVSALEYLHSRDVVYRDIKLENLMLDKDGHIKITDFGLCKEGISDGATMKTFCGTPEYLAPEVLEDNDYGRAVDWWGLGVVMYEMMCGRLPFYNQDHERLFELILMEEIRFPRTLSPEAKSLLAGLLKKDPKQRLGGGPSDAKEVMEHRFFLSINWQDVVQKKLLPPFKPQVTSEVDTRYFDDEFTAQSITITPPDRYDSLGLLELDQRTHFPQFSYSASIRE

NUAK1 = molecular target: T3, NUAK1 (Homo sapiens, UniProt O60285); assay: Kinase profiling; assay type: biochemical
T3 sequence (O60285 1-661): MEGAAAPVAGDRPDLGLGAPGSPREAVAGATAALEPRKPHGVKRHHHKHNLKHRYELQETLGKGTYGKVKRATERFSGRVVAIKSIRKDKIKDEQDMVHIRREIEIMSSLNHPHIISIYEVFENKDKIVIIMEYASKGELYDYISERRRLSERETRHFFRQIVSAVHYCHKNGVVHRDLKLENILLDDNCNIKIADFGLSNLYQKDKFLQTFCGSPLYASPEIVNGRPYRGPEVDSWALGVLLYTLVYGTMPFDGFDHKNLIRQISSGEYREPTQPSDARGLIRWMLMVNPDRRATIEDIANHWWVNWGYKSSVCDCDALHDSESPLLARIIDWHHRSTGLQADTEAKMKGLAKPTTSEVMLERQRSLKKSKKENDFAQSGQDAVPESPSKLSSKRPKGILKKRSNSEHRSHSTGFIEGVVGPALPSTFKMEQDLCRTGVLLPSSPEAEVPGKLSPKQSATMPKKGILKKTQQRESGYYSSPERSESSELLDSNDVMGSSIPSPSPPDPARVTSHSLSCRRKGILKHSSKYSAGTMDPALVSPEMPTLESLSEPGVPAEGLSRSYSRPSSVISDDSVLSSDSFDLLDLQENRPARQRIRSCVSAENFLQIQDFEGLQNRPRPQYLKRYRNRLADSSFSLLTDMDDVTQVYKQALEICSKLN

[1] = system: RAW264.7 macrophages expressing HA-SIK2[T96Q]; assay: IL-10 and Nurr77 mRNA in macrophages expressing drug-resistant SIK2; assay type: cell-based; conditions: cells expressing drug-resistant SIK2[T96Q]; drug 1 h, LPS 1 h
Method: Primary macrophages were generated by differentiating bone marrow from 6- to 12-week-old C57BL/6 mice for 7 days in Dulbecco's modified Eagle's medium (DMEM) supplemented with 5 ng/ml recombinant M-CSF (R&D systems), 2 mM glutamine, 10% FBS, penicillin and streptomycin. Bone-marrow-derived macrophages were differentiated on non-tissue-culture-treated plastic, harvested and replated at a density of 100000 cells/cm^2 per 0.1 ml on tissue culture-treated plastic in fresh medium before stimulation on day 8. RAW264.7 cells were cultured in DMEM containing 10% FBS, 2 mM glutamine and penicillin and streptomycin. […] Cells were treated for 1 h with or without inhibitors and then stimulated for up to 24 h with either 1 μg/ml Pam3CSK4 or 100 ng/ml LPS.
mRNA was extracted from cells using the MicroElute Total RNA kit following the manufacturers’ instructions (Omega Bio-Tek). cDNA was generated from 0.5 μg of total RNA using the iScript cDNA synthesis kit and quantified by quantitative real-time PCR (qPCR) using the SsoFast EvaGreen Supermix on a CFX384 real-time system (Bio-Rad Laboratories). The relative expression of each gene was calculated from CT values using the Pfaffl method and was normalized against the mRNA levels of housekeeping genes including 18S RNA and GAPDH.

PKA = PKA (Homo sapiens, UniProt P17612); assay: Kinase profiling; assay type: biochemical

SMILES | remaining activity at 0.1 µM (GCK) | remaining activity at 1 µM (GCK) | remaining activity at 0.1 µM (MLK1) | remaining activity at 1 µM (MLK1) | remaining activity at 0.1 µM (SmMLCK) | remaining activity at 1 µM (SmMLCK) | remaining activity at 0.1 µM (TAK1) | remaining activity at 1 µM (TAK1) | remaining activity at 0.1 µM (MKK2) | remaining activity at 1 µM (MKK2) | remaining activity at 0.1 µM (PKB beta) | remaining activity at 1 µM (PKB beta) | remaining activity at 0.1 µM (NUAK1) | remaining activity at 1 µM (NUAK1) | LPS-stimulated CREB-dependent gene transcription including IL-10 and Nurr77 [1] | remaining activity at 0.1 µM (PKA) | remaining activity at 1 µM (PKA)
COc1cc(Nc2c(C#N)cnc3cc(OCCCN4CCN(C)CC4)c(OC)cc23)c(Cl)cc1Cl [Bosutinib, bosutinib] | 9 ± 2% | 4% | 52 ± 9% | 18 ± 4% | 88 ± 2% | 27 ± 1% | 41 ± 9% | 5% | 60 ± 3% | 21 ± 4% | 102 ± 6% | 90 ± 3% | 63 ± 12% | 21 ± 2% | little effect | 111 ± 16% | 105 ± 7%
Cc1nc(Nc2ncc(C(=O)Nc3c(C)cccc3Cl)s2)cc(N2CCN(CCO)CC2)n1 [Dasatinib] | 95 ± 7% | 56 ± 8% | 72 ± 1% | 41 ± 2% | 111 ± 4% | 111 ± 7% | 97 ± 23% | 99 ± 7% | 113 ± 11% | 91% | 94 ± 11% | 94 ± 2% | 119 ± 10% | 118 ± 8% | little effect | 110 ± 12% | 121 ± 27%
